From PubChem BioAssay (NCI)
Where “and” joins values, the source holds several entries; their conditions need not be identical. Identical values can stand only once.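 Each compound was tested at five concentrations against cells in 96-well plates for 48 hours. GI50: concentration for 50% inhibition of growth. TGI is the concentration that stops growth completely.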

Legend:
Assay in all cases: NCI anticancer screen, dose series, 48 h
SK-MEL-28 melanoma = tested on: SK-MEL-28 melanoma
SK-MEL-2 melanoma = tested on: SK-MEL-2 melanoma
SNB-19 CNS = tested on: SNB-19 CNS
ACHN renal = tested on: ACHN renal
A498 renal = tested on: A498 renal
NCI-H226 lung = tested on: NCI-H226 lung
RXF 393 renal = tested on: RXF 393 renal
DU-145 prostate = tested on: DU-145 prostate
SN12C renal = tested on: SN12C renal
MCF7 breast = tested on: MCF7 breast

SMILES | TGI (SK-MEL-28 melanoma) [µM] | TGI (SK-MEL-2 melanoma) [µM] | TGI (SNB-19 CNS) [µM] | TGI (ACHN renal) [µM] | TGI (A498 renal) [µM] | TGI (NCI-H226 lung) | TGI (RXF 393 renal) [µM] | TGI (DU-145 prostate) [µM] | TGI (SN12C renal) [µM] | TGI (MCF7 breast) [µM] | GI50 (SK-MEL-2 melanoma) [µM] | GI50 (SNB-19 CNS) [µM] | GI50 (ACHN renal) [µM] | GI50 (MCF7 breast) [µM] | GI50 (DU-145 prostate) [µM] | GI50 (SN12C renal) [µM] | GI50 (SK-MEL-28 melanoma) [µM] | GI50 (NCI-H226 lung) [µM] | GI50 (RXF 393 renal) [µM] | GI50 (A498 renal) [µM]
COc1ccc(OC)c(/C=C/NC=O)c1 | > 100 | > 100 | > 100 | > 100 | > 100 | > 100 µM | > 100 | > 100 | > 100 | – | – | – | – | – | – | – | – | – | – | –
CNC=O.[O]=[Ge].[O]=[Ge].[O]=[Ge].[O]=[Ge][OH].[O]=[Ge][OH] | > 100 | > 100 | > 100 | > 100 | > 100 | > 100 µM | > 100 | – | > 100 | – | – | – | – | – | – | – | – | – | – | –
CSc1ccc(/C=C2/C[N+](C)(C)C/C(=C/c3ccc(SC)cc3)C2=O)cc1 | 20.9 | 36.2 | – | > 100 | – | 72.5 µM | 31.6 | – | 21.2 | – | – | – | – | – | – | – | – | – | – | –
COC(=O)C1=C(c2ccc3c(c2)OCO3)O[C@H](c2ccc3c(c2)OCO3)[C@H]1COC(C)=O | > 100 | > 100 | – | > 100 | 59.6 | > 100 µM | > 100 | – | > 100 | – | – | – | – | – | – | – | – | – | – | –
CN(C)C(=S)/N=c1\ss/c(=N\C(=S)N(C)C)n1-c1ccc2c(c1)OCO2 | > 100 | > 100 | > 100 | > 100 | > 100 | > 100 µM | > 100 | – | > 100 | – | – | – | – | – | – | – | – | – | – | –
Cc1cccc(N2C(=O)C(Cl)=C(Cl)C2=O)c1 | > 100 | > 100 | > 100 | > 74.6 | > 100 | > 100 µM | 30.7 | – | > 100 | – | – | – | – | – | – | – | – | – | – | –
O=C(/C=C/c1ccccc1Cl)c1ccccc1Cl | 36.5 | – | 32.8 | 31.1 | > 100 | > 100 µM | – | – | 41.4 | – | – | – | – | – | – | – | – | – | – | –
COc1cc([N+](=O)[O-])ccc1NC(=O)C(F)(F)F | > 100 | > 100 | > 100 | > 100 | > 100 | > 100 µM | – | > 100 | > 100 | > 100 | – | – | – | – | – | – | – | – | – | –
CSc1nc(NC2OC(COC(C)=O)C(OC(C)=O)C(OC(C)=O)C2OC(C)=O)c2c(OC(C)=O)c(C)c(=O)oc2n1 (stereo not drawn) | – | > 100 | > 100 | > 100 | > 100 | > 100 µM | > 100 | – | > 100 | – | – | – | – | – | – | – | – | – | – | –
CCc1cccc(C)c1NC(C)=O | > 100 | > 100 | – | > 100 | > 100 | > 100 µM | > 100 | – | – | – | – | – | – | – | – | – | – | – | – | –
Cc1cccc(C(C)(C)C)c1NC(=O)CCc1n[nH]c(=S)o1 | > 100 | – | > 100 | > 100 | > 100 | 0.832 µM | – | – | > 100 | – | – | – | – | – | – | – | – | – | – | –
O=S(O)CCCCSSCCCCSSCCCCS(=O)O | > 100 | > 100 | > 100 | > 100 | > 100 | – | > 100 | – | > 100 | – | – | – | – | – | – | – | – | – | – | –
O=C(NC1CCCCCC1)C1C(=O)N(C2CCCCCC2)C(=O)/C1=N\O (stereo not drawn) | 87 | 40.3 | > 100 | > 100 | 80.4 | > 100 µM | 48.2 | – | > 100 | – | – | – | – | – | – | – | – | – | – | –
C#CC[C@]12CC(=O)CC[C@H]1CC(=O)C2 | > 100 | > 100 | > 100 | > 100 | > 100 | > 100 µM | > 100 | – | > 100 | – | – | – | – | – | – | – | – | – | – | –
COc1cc2c3c(n(CCCCl)c(=O)c2cc1OC)-c1ccccc1C3=O | – | > 100 | > 100 | > 100 | – | – | – | > 100 | > 100 | > 100 | > 100 | > 100 | 19.2 | 8.9 | > 100 | > 100 | – | – | – | –
Cn1cc(-c2csc(-c3cccc(F)c3)n2)c2cccnc21 | 32.8 | 55.2 | 54.4 | 50.7 | – | 51.1 µM | 34.4 | 32.1 | 29.5 | 43.4 | 23.5 | 20.1 | 18.2 | 17.9 | 18.2 | 15.6 | 17.6 | 19.4 | 16 | –
COc1cc(-c2c(C#N)c(N)n3c(nc4ccccc43)c2C#N)cc(Br)c1OC | > 100 | > 100 | > 100 | > 100 | > 100 | > 100 µM | > 100 | – | – | – | 47.5 | > 100 | > 100 | – | – | – | > 100 | > 100 | 4.37 | > 100
COC(=O)c1cc2c(c(C(=O)OC)c1O)C(=O)C=CC2=O | > 58.1 | > 100 | > 60.7 | > 46.3 | > 55.8 | > 9.1 µM and 34.7 µM | > 48.9 | – | > 56.3 | – | > 100 | > 9.1 | > 9.1 | – | – | > 9.1 | > 9.1 | 18.5 | > 9.1 | > 9.1
CC(=O)SCCC1c2[nH]c3ccccc3c2CCN1O (stereo not drawn) | > 100 | > 100 | > 100 | > 100 | – | – | > 100 | – | > 100 | – | – | – | – | – | – | – | – | – | – | –
COc1cccc(N=Cc2c3ccccc3c(=O)n3c2oc2ccccc23)c1 | > 100 | > 100 | > 100 | 30 | 61.4 | – | 20.9 | > 100 | 23.5 | > 100 | > 100 | 52.2 | 7.11 | 4.06 | 21.8 | 2.22 | > 100 | – | – | 17.2
CCC(C)(O)c1cn(-c2cccc(S(=O)(=O)O)c2)nn1 (stereo not drawn) | > 100 | > 100 | > 100 | > 100 | > 100 | > 100 µM | > 100 | – | > 100 | – | – | – | – | – | – | – | – | – | – | –
CCCCn1c(-c2ccc(C(=O)O/N=C(\N)c3ccc(OC)cc3)cc2)nc(-c2ccccc2)c1-c1ccccc1 | > 100 | 8.36 | 5.01 | 1.85 | – | – | 3.24 | 2.59 | 4.46 | – | 2.75 | 1.91 | 0.599 | – | 1.27 | 1.84 | 2.75 | – | 1.64 | –
